This is an account of results in US10149879B2 (priority 2014, dated 2018).

The structures appear in SMILES notation.

In one data set the test system is HDL-c, VLDL-c, LDL-c. The experiment in a line: Lipoprotein profile and assessment of atherosclerosis. More on the design: HDL-c / VLDL-c / LDL-c: unit not given here. The following applies: H.G. animals; standard drug. In kind it is in vivo, rats. The method, then: (§1) Before utilizing the test drug for human consumption the pre-clinical safety and efficacy profile of single plant candidate extract as well as in combined form was conducted following standard norms. […] The effect of test drug was assessed on glucose levels, insulin level, glycosylated hemoglobin, and pro-inflammatory cytokines, and the most important bio-marker neopterin including various neuro-psychological assessments.

The next data set deals with Glycogen. The experiment in a line: Restoration of glycogen in liver and skeletal muscle. In kind it is in vivo, rats. The following applies: H.G. animals; standard drug. The protocol: as §1
Data set [1] has as its system SGOT, SGPT, ALP, ACP, LDH. The experiment in a line: Hepato-protective effect (SGOT, SGPT, ALP, ACP, LDH). In kind it is in vivo, rats. The note with it: H.G. animals; standard drug. The protocol: (§2) Before utilizing the test drug for human consumption the pre-clinical safety and efficacy profile of single plant candidate extract as well as in combined form was conducted following standard norms. The biological property of test formulation was validated in streptozotocin (STZ) induced diabetes animal model which also helped in evaluation of vascular complications caused due to diabetes. The effect of test drug was assessed on glucose levels, insulin level, glycosylated hemoglobin, and pro-inflammatory cytokines, and the most important bio-marker neopterin including various neuro-psychological assessments. The mechanism based study clearly indicated the neopterin decreasing potential of test formulation which exerted neuro-protective activity, better glycemic control, anti-atherosclerotic, anti-inflammatory, anti-oxidant effects in STZ induced diabetes among the animals. Further, its therapeutic activity has also been validated in neurogenic dementia and other cognitive deficits associated with diabetes mellitus. Hepato-Protective Effect of Test Formulation

A further data set concerns Triglycerides. The data set is described as follows: Anti-hyperlipidemic activity on triglycerides. In kind it is in vivo, rats. The note with it: H.G. animals, standard drug. The protocol: as §2, with “mellitus.” for “mellitus. Hepato-Protective Effect of Test Formulation”
In the next data set the test system is SOD. The data set is described as follows: Attenuation of oxidative stress: SOD. In kind it is in vivo, rats. The arrangement: SOD, Brain / SOD, Heart / SOD, Liver / SOD, Kidney: unit not given here. The note with it: H.G. animals; standard drug. The method, then: Before utilizing the test drug for human consumption the pre-clinical safety and efficacy profile of single plant candidate extract as well as in combined form was conducted following standard norms. The biological property of test formulation was validated in streptozotocin (STZ) induced diabetes animal model which also helped in evaluation of vascular complications caused due to diabetes. The effect of test drug was assessed on glucose levels, insulin level, glycosylated hemoglobin, and pro-inflammatory cytokines, and the most important bio-marker neopterin including various neuro-psychological assessments. The mechanism based study clearly indicated the neopterin decreasing potential of test formulation which exerted neuro-protective activity, better glycemic control, anti-atherosclerotic, anti-inflammatory, anti-oxidant effects in STZ induced diabetes among the animals. Further, its therapeutic activity has also been validated in neurogenic dementia and other cognitive deficits associated with diabetes mellitus. Attenuation of Oxidative Stress Following Treatment with Test Formulation—Restriction of SOD

In the next data set the test system is G-6-P. The experiment in a line: Regulation of key enzymes in gluconeogenesis: G-6-P. In kind it is in vivo, rats. The note with it: H.G. animals; standard drug. The method, then: as §2, with “mellitus.” for “mellitus. Hepato-Protective Effect of Test Formulation”
A further data set deals with Cholesterol. The data set is described as follows: Anti-hyperlipidemic activity: cholesterol. In kind it is in vivo, rats. The note with it: H.G. animals, standard drug. The method, then:
as §2, with “mellitus.” for “mellitus. Hepato-Protective Effect of Test Formulation”

The subject of the next data set is Adiponectin. The experiment in a line: Adiponectin enhancing property in experimental diabetes. In kind it is in vivo, rats. The following applies: H.G. animals, standard drug. The protocol: as §2, with “Adiponectin Enhancing Property” for “Hepato-Protective Effect”, “Berberis aristata in Experimental Diabetes” for “Test Formulation”
In a further data set the test system is 3T3-L1 cells. The data set is described as follows: Cell viability assay in 3T3-L1 cells. The following applies: for Cell viability: 3T3-L1, control 100.00.
The subject of data set [2] is nor-epinephrine, serotonin and dopamine in whole brain. The following applies: mice; acute administration 5 mg/kg ip; cited from earlier work.
A further data set concerns L6-myotubes. The data set is described as follows: Anti-diabetic activity (glucose consumption) in L6-myotubes. In kind it is cell-based. The arrangement: Anti-diabetic activity (glucose consumption): unit not given here. The note with it: for Anti-diabetic activity (glucose consumption): L6-myotubes, control 1.00.
Another data set concerns the target T1, Aldose reductase (Rattus norvegicus, UniProt P07943).
T1 construct: from tissue; STZ-induced diabetic animals
The experiment in a line: Aldose reductase activity. In kind it is in vivo, rats. The note with it: H.G. animals; standard drug. The method, then: Before utilizing the test drug for human consumption the pre-clinical safety and efficacy profile of single plant candidate extract as well as in combined form was conducted following standard norms. […] The effect of test drug was assessed on glucose levels, insulin level, glycosylated hemoglobin, and pro-inflammatory cytokines, and the most important bio-marker neopterin including various neuro-psychological assessments. […] Aldose Reductase Activity and Glycation of Hemoglobin Following Test Formulation Treatment

Consider `CCc1ccc(CCOc2ccc(CC3SC(=O)NC3=O)cc2)nc1` (centres unmarked) [Pioglitazone], for which, in the data set with HDL-c, VLDL-c, LDL-c, the Anti-atherogenic index amounted to 10.02 ± 5.23, the “Atherogenic Index” value is given as 2.20 ± 0.35, the HDL-c came out at 31.44 ± 2.85 and the LDL-c is on record as 35.11 ± 7.29. Also, the VLDL-c in the data set with HDL-c, VLDL-c, LDL-c came to 17.86 ± 2.05. In the data set with Glycogen, the “Glycogen content, Liver” value is recorded as 975.00 ± 43.14 nM/Mg of Tissue and the “Glycogen content, Skeletal muscle” value was 42.02 ± 7.26 nM/Mg of Tissue. Moreover, in data set [1], the ACP was 11.95 ± 1.00 U/L, the ALP worked out at 139.50 ± 3.15 U/L, the LDH turned out to be 160.00 ± 15.00 U/L and the SGOT is 72.00 ± 5.71 U/L. Besides, the SGPT in data set [1] turned out to be 27.00 ± 3.00 U/L. The Triglycerides in the data set with Triglycerides (0 days) is 133.35 ± 09.77 mg/dL. The compound further gave a Triglycerides in the data set with Triglycerides (7th day) of 117.50 ± 9.02 mg/dL. This compound registered a Triglycerides with Triglycerides (14th Day) of 71.30 ± 6.26 mg/dL. In the data set with SOD, the “SOD, Brain” value stood at 19.33 ± 3.66; the “SOD, Heart” value stood at 15.83 ± 5.83; the “SOD, Kidney” value came out at 16.67 ± 1.86; the “SOD, Liver” value worked out at 13.50 ± 1.76. In the data set with SOD, the “SOD, Pancrease” value is 6.91 ± 0.22. In the data set with G-6-P, the “G-6-P, Kidney” value is listed as 45.08 ± 4.76 μm/min/mg of protein and the “G-6-P, Liver” value is recorded as 68.56 ± 7.51 μm/min/mg of protein. The Cholesterol with Cholesterol (0 days) was 112.33 ± 7.50 mg/dL. This compound came in with a Cholesterol in the data set on Cholesterol (7th day) of 94.23 ± 8.23 mg/dL. This compound gave a Cholesterol in the data set with Cholesterol (14th Day) of 81.41 ± 9.94 mg/dL. Moreover, the Adiponectin in the data set with Adiponectin (7th day) came out at 7.13 ± 2.10 pg/mL. Also, in the data set on Adiponectin (14th Day), the Adiponectin amounted to 8.02 ± 2.01 pg/mL.
In the case of `COc1ccc2cc3[n+](cc2c1OC)CCc1cc2c(cc1-3)OCO2` [Berberin], the Cell viability in the data set on 3T3-L1 cells (10 pM) came to 99.50 ± 1.50; in the data set on 3T3-L1 cells (100 pM), 99.99 ± 2.80; in the data set with 3T3-L1 cells (1 nM), 99.88 ± 0.91; in the data set on 3T3-L1 cells (10 nM) it was 98.25 ± 1.20; with 3T3-L1 cells (100 nM), 97.69 ± 1.09; with 3T3-L1 cells (1 μM), 90.68 ± 2.05. The Cell viability in the data set on 3T3-L1 cells (10 μM) is 75.12 ± 2.85; in the data set on 3T3-L1 cells (100 μM), 62.54 ± 4.20. Besides, in the data set on 3T3-L1 cells (3T3-L1 cells, 1 μM), the “toxicity to the cell” value is “non-toxic”. Besides, the “increased level of dopamine in whole brain” value in data set [2] is on record as 31%. In addition, the “increased level of nor-epinephrine in whole brain” value in [2] was 31%. Also, the “increased level of serotonin in whole brain” value in data set [2] is recorded as 47%. Moreover, the “Anti-diabetic activity (glucose consumption)” value in the data set with L6-myotubes (1 nM) was 1.38 ± 0.08; with L6-myotubes (5 nM), 1.78 ± 0.08; with L6-myotubes (25 nM), 1.98 ± 0.08; with L6-myotubes (125 nM), 2.30 ± 0.08; in the data set with L6-myotubes (625 nM) it was 2.50 ± 0.10. Also, the “glucose consumption” value in the data set on L6-myotubes (differentiated L6-myotubes, dose dependent) was “accelerated glucose consumption”.
On to `CN(C)C(=N)N=C(N)N` [Metformin], for which, in the data set with HDL-c, VLDL-c, LDL-c, the HDL-c worked out at 27.68 ± 3.51, the LDL-c was 41.38 ± 4.26 and the VLDL-c is 22.10 ± 3.15. Also, in the data set on Glycogen, the “Glycogen content, Liver” value is given as 1095.03 ± 63.10 nM/Mg of Tissue and the “Glycogen content, Skeletal muscle” value is 86.98 ± 12.80 nM/Mg of Tissue. In data set [1], the ACP came out at 12.05 ± 0.68 U/L, the ALP is 142.00 ± 6.00 U/L, the LDH came out at 145.11 ± 15.00 U/L and the SGOT was 60.00 ± 5.00 U/L. The compound also registered an SGPT in data set [1] of 24.25 ± 2.12 U/L. The Triglycerides with Triglycerides (0 days) was determined as 134.77 ± 14.06 mg/dL. In the data set with Triglycerides (7th day), this compound displayed a Triglycerides of 123.32 ± 9.51 mg/dL. Moreover, the Triglycerides with Triglycerides (14th Day) was determined as 102.50 ± 11.75 mg/dL. Moreover, in the data set with SOD, the “SOD, Brain” value was found to be 19.83 ± 3.56; the “SOD, Heart” value was 14.33 ± 5.13; the “SOD, Kidney” value came to 16.00 ± 2.37; the “SOD, Liver” value is 15.33 ± 0.86. Moreover, the “SOD, Pancrease” value in the data set with SOD was found to be 7.01 ± 0.46. Moreover, in the data set with G-6-P, the “G-6-P, Kidney” value is reported as 41.85 ± 7.71 μm/min/mg of protein and the “G-6-P, Liver” value is 57.49 ± 8.17 μm/min/mg of protein. For the same compound, the Cholesterol in the data set on Cholesterol (0 days) was 110.33 ± 9.55 mg/dL. The Cholesterol in the data set with Cholesterol (7th day) came out at 100.00 ± 5.63 mg/dL. The Cholesterol in the data set on Cholesterol (14th Day) stood at 88.17 ± 4.79 mg/dL. Besides, in the data set on Adiponectin (7th day), the Adiponectin amounted to 6.90 ± 1.87 pg/mL. In addition, the Adiponectin with Adiponectin (14th Day) turned out to be 6.11 ± 1.39 pg/mL. For the same compound, the Aldose reductase at Aldose reductase is 2.60 ± 0.75 μM of NADPH oxidized/g of protein.
